Read-outs that look alike come from different tables or passages of the source.
Assays:
[1] = test system: male KK-A^y mice; test: Decrease of plasma glucose and triglyceride in KK-Ay mice; assay type: in vivo; conditions: non-fasting, 10 mg/kg/day orally for 4 consecutive days, 24 hours after final administration, vs control group
Procedure: The test compounds (compounds of Examples 2, 6, 8, 16, 26, 27 and 31) were suspended in 5% gum arabic solution and administered (10 mg/kg/day) orally to the administration group for 4 consecutive days from the next day. The 5% gum arabic solution was orally administered to the control group.

[2] = test system: male db/db mice; conditions: for Decrease (%) in glucose level / Decrease (%) in triglyceride: plasma, 24 hours after final administration
Procedure: Using db/db mice genetically showing high plasma glucose, hypertriglyceridemia, insulin resistance and obesity, the pharmacological activity of the test compound of Example 6 was examined.
Blood was drawn under a non-fasting state from the tail vein of male db/db mice, the glucose level and triglyceride level of the plasma were measured using commercially available assay kits (glucose CII-test WAKO and triglyceride G-test WAKO, Wako Pure Chemical Industries, Ltd.). The mice were grouped (6 mice per group) into a control group and test compound (compound of Example 6) administration groups (3 and 10 mg/kg/day), such that the mean and standard deviation of the body weight and the plasma glucose and plasma triglyceride levels in each group were nearly the same. The test compound was suspended in 0.5% methylcellulose solution and administered orally for 2 consecutive weeks from the next day. The 0.5% methylcellulose solution was orally administered to the control group. Blood was drawn under a non-fasting state from the tail vein 24 hours after the final administration and the glucose and triglyceride levels of the plasma were measured. The decrease in the plasma glucose and triglyceride levels was calculated from the following formula.

[3] = test system: 6-week-old male SD rats; conditions: 30 and 100 mg/kg/day orally, 4 consecutive weeks
Procedure: Using 6-week-old male SD rats, toxicity by repeat administration was examined.
(§1) The rats were grouped (6 rats per group) into a control group and test compound (compound of Example 6) administration groups (30 and 100 mg/kg/day), such that the mean and the standard deviation of the body weight of the rats were nearly the same. The test compound was suspended in 0.5% methylcellulose solution and administered orally for 4 consecutive weeks from the next day. The 0.5% methylcellulose solution was orally administered to the control group. The rats were fasted for 16 hr from the last day of administration, anesthetized by intraperitoneal administration of pentobarbital sodium (50 mg/kg) 24 hr after the final administration and the blood was drawn. Using EDTA-added blood, hematocrit value and erythrocyte count were measured, and using serum, AST (GOT) and ALT (GPT) were measured. In addition, the total blood volume was calculated. The white fat around the epididymides, and the liver and heart were removed and wet weights thereof were measured.

[4] = test system: 6-week-old female Wistar rats; conditions: 30 and 100 mg/kg/day orally, 2 consecutive weeks
Procedure: Using 6-week-old female Wistar rats, toxicity by repeat administration was examined.
as §1, with “for 2” for “for 4”, “the uterus,” for “the epididymides,”

[5] = 3 and 10 mg/kg/day orally, 2 weeks
[6] = 3 mg/kg/day orally for 2 consecutive weeks
[7] = 10 mg/kg/day orally for 2 consecutive weeks

In the case of `CC(C)(C)N.CC=CC=CC(=O)N1Cc2cc(OCCc3nc(-c4ccc(C(C)C)cc4)oc3C)ccc2C[C@H]1C(=O)O` [Example 27, tert-butylamine 2-(2,4-hexadienoyl)-7-{2-[2-(4-isopropylphenyl)-5-methyloxazol-4-yl]ethoxy}-1,2,3,4-tetrahydroisoquinoline-(3S)-carboxylate], the “Decrease (%) in glucose level” value [1] is reported as 55.8% and the “Decrease (%) in triglyceride” value [1] is reported as 73.8%.
For `CC(C)(C)N.CC=CC=CC(=O)N1Cc2cc(OCCc3nc(-c4ccc(C(C)(C)C)cc4)oc3C)ccc2C[C@H]1C(=O)O` [Example 16, tert-butylamine 7-{2-[2-(4-tert-butylphenyl)-5-methyloxazol-4-yl]ethoxy}-2-(2,4-hexadienoyl)-1,2,3,4-tetrahydroisoquinoline-(3S)-carboxylate], the “Decrease (%) in glucose level” value [1] was 60.9% and the “Decrease (%) in triglyceride” value [1] was 73.4%.
In the case of `CCCC#CC(=O)N1Cc2cc(OCCc3nc(-c4ccccc4)oc3C)ccc2C[C@H]1C(=O)O` [Example 8, 2-(2-hexynoyl)-7-[2-(5-methyl-2-phenyloxazol-4-yl)ethoxy]-1,2,3,4-tetrahydroisoquinoline-(3S)-carboxylic acid], the “Decrease (%) in glucose level” value [1] is reported as 46.1% and the “Decrease (%) in triglyceride” value [1] is reported as 55.2%.
In the case of `CC(C)(C)N.CC=CC=CC(=O)N1Cc2cc(OCCc3nc(-c4ccc(OCc5ccccc5)cc4)oc3C)ccc2C[C@H]1C(=O)O` [Example 26, tert-butylamine 7-{2-[2-(4-benzyloxyphenyl)-5-methyloxazol-4-yl]ethoxy}-2-(2,4-hexadienoyl)-1,2,3,4-tetrahydroisoquinoline-(3S)-carboxylate], the “Decrease (%) in glucose level” value [1] is reported as 43.7% and the “Decrease (%) in triglyceride” value [1] is reported as 67.8%.
With `CC(C)(C)N.CC=CC=CC(=O)N1Cc2cc(OCCc3nc(-c4ccc(N(C)C)cc4)oc3C)ccc2C[C@H]1C(=O)O` [Example 31, tert-butylamine 7-{2-[2-(4-dimethylaminophenyl)-5-methyloxazol-4-yl]ethoxy}-2-(2,4-hexadienoyl)-1,2,3,4-tetrahydroisoquinoline-(3S)-carboxylate] the “Decrease (%) in glucose level” value [1] was 39.4% and the “Decrease (%) in triglyceride” value [1] was 20.1%.
In the case of `CCCCC=CC(=O)N1Cc2cc(OCCc3nc(-c4ccccc4)oc3C)ccc2C[C@H]1C(=O)O` [Example 2, 2-(2-heptenoyl)-7-[2-(5-methyl-2-phenyloxazol-4-yl)ethoxy]-1,2,3,4-tetrahydroisoquinoline-(3S)-carboxylic acid], the “Decrease (%) in glucose level” value [1] is reported as 46.8% and the “Decrease (%) in triglyceride” value [1] is reported as 44.9%.
With `CC=CC=CC(=O)N1Cc2cc(OCCc3nc(-c4ccccc4)oc3C)ccc2C[C@H]1C(=O)O` [Example 6] the “Decrease (%) in glucose level” value [1] was 45.9%, the “Decrease (%) in triglyceride” value [1] was 45.7% and the “plasma glucose level after treatment” value [2, 5] was “almost the normal levels”. The “plasma triglyceride level after treatment” value [2, 5] was “almost the normal levels”, the “Decrease (%) in glucose level” value [2, 6] was 59.9% and the “Decrease (%) in triglyceride” value [2, 6] was 77.1%. For the same molecule, the “Decrease (%) in glucose level” value [2, 7] was 64.4%, the “Decrease (%) in triglyceride” value [2, 7] was 78.8% and the “body weight, difference from control group” value [3] was “no significant difference”. For the same molecule, the “erythrocyte count, difference from control group” value [3] was “no significant difference”, the “hematocrit value, difference from control group” value [3] was “no significant difference” and the “total blood volume, difference from control group” value [3] was “no significant difference”. For the same molecule, the “weight of the heart, difference from control group” value [3] was “no significant difference”, the “weight of the liver, difference from control group” value [3] was “no significant difference” and the “weight of white fat around the epididymides, difference from control group” value [3] was “no significant difference”. The “ALT (GPT), difference from control group” value ([3]; serum) was “no significant difference”, the “AST (GOT), difference from control group” value ([3]; serum) was “no significant difference” and the “body weight, difference from control group” value [4] was “no significant difference”. The “erythrocyte count, difference from control group” value [4] was “no significant difference”, the “hematocrit value, difference from control group” value [4] was “no significant difference” and the “total blood volume, difference from control group” value [4] was “no significant difference”. The “weight of the heart, difference from control group” value [4] was “no significant difference”, the “weight of the liver, difference from control group” value [4] was “no significant difference” and the “weight of white fat around the uterus, difference from control group” value [4] was “no significant difference”. The “ALT (GPT), difference from control group” value ([4]; serum) was “no significant difference” and the “AST (GOT), difference from control group” value ([4]; serum) was “no significant difference”.
